Experimental data from PMC10788912 (Journal of Medicinal Chemistry, 2023).
Where two headings read alike, the source gives them in different places.

Assays:
[1] = tested on: human lung fibroblast MRC5 cells; test: Long-term dark effect on noncancerous cells, MTT, MRC5; format: cell-based; settings: continuous exposure 48 h
Description: The low toxicity of nonirradiated Ir complexes toward human noncancerous cells was confirmed by the fact that their effect was very low or even undetectable during long-term exposure when the human primary prostate epithelial hTERT EP156T and human lung fibroblast MRC5 cells were exposed to the complexes continuously for 48 h (Table 2).
After the period of incubation, an MTT assay was performed and evaluated.

[2] = tested on: human skin melanoma cells A375; test: Phototoxicity testing, MTT assay, A375; format: cell-based; settings: MTT 72 h
Description: (§1) The cells were treated with tested compounds diluted in Earle’s balanced salt solution (EBSS) for 1 h in the dark to allow the complexes to penetrate the cells. Afterward, the cells were irradiated for 1 h with blue light (LZC-4 photoreactor equipped with 16 lamps LZC-420, λmax = 420 nm) or sham irradiated. EBSS containing an Ir complex was then removed, and cells were incubated in the complete, drug-free Dulbecco’s modified Eagle’s medium (DMEM).
(§2) The metabolic activity of the cells (proportional to number of viable cells) was determined 72 h after irradiation using the standard 3-[4,5-dimethylthiazol-2-yl]-2,5 diphenyl tetrazolium bromide (MTT) assay. […] For comparative purposes (and at the reviewer’s request), the clinically used metallodrug cisplatin was included in the experiment.
(§3) The phototoxic potency of Ir complexes 1–4 was determined against human cancer Hela, A375, and HCT116 cell lines. Cells were seeded on 96-well tissue culture plates at a density of 5 × 10^3 cells/well in 100 μL of complete DMEM medium and cultured overnight in a humidified incubator. […] The number of cells was determined using a standard MTT or SRB assay. […] The phototoxic index (PI) was calculated as a ratio of IC50 (dark)/IC50 (irradiated).

[3] = tested on: human colon adenocarcinoma HCT116 cells; test: Phototoxicity testing, MTT assay, HCT116; format: cell-based; settings: MTT 72 h
Description: as §1, §2, §3

[4] = tested on: human cervix adenocarcinoma (HeLa) cells; test: Phototoxicity testing, MTT assay, HeLa; format: cell-based
Description: as §1, §2
Therefore, the photoactivation of Ir2 was tested also using a green (λmax = 545 nm) or red (λmax = 613 nm) light irradiation. For this experiment, samples were irradiated with a visible cool white lamp (LZC-Vis, Luzchem), and the appropriate green or red filter was applied; spectral characteristics can be seen in Figure S58.
The phototoxic potency of Ir complexes 1–4 was determined against human cancer Hela, A375, and HCT116 cell lines. […] The number of cells was determined using a standard MTT or SRB assay. […] The phototoxic index (PI) was calculated as a ratio of IC50 (dark)/IC50 (irradiated).

caspase-3 in HeLa cells = test: Caspase-3/7 activity assay; format: cell-based, human; settings: equitoxic concentrations, 1 h dark, 1 h irradiation 420 nm, 2 h recovery
Description: Figure 7 and Figure S59 show the morphological alteration observed 2 h after the HeLa cells were treated with Ir complexes 1–4 at their equitoxic concentrations (IC50,72h) and irradiated. […] The whole cells were swollen and rounded (Figure 7B–E). A significant cytoplasm blebbing was evident in the early stages of the process (Figure 7F). The bubbles around the cells were completely clean inside (Figure 7F), distinguishing them from the budding process typical of apoptosis.
The activation of caspase-3 was detected using CellEvent Caspase-3/7 Green - Active Caspase-3/7 Assay Kit (Thermo Fisher Scientific). Briefly, HeLa cells were seeded at a 6-well plate at 3 × 10^5 cells/well density and treated and irradiated as described above (1 h preincubation in the dark, 1 h irradiation at 420 nm). After 2 h of recovery in compound-free media, cells were stained with the CellEventCaspase 3/7 Green Detection Reagent according to the manufacturer’s protocol, and the fluorescence signal was analyzed by flow cytometry.

| Structure (SMILES) | IC50 [1] [µM] | IC50 ([2]; blue light 1 h, λmax = 420 nm, 58 ± 2 W m–2, read-out: IC50 A375 irrad) [µM] | IC50 ([2]; sham irradiated, read-out: IC50 A375 sham irrad) [µM] | IC50 ([3]; blue light 1 h, λmax = 420 nm, 58 ± 2 W m–2, read-out: IC50 HCT116 irrad) [µM] | IC50 ([3]; sham irradiated, read-out: IC50 HCT116 sham irrad) [µM] | IC50 ([4]; 1 h dark, then blue light 1 h, λmax = 420 nm, 58 ± 2 W m–2, MTT 72 h after irradiation, read-out: IC50 HeLa irrad) [µM] | IC50 ([4]; sham irradiated, MTT 72 h, read-out: IC50 HeLa sham irrad) [µM] | caspase-3 activity (caspase-3 in HeLa cells) |
| --- | --- | --- | --- | --- | --- | --- | --- | --- |
| N.N.[Cl][Pt][Cl] [cisPt, cisplatin] | 6 ± 0.7 | 15 ± 2 | 14 ± 1 | 27 ± 7 | 19 ± 4 | 27 ± 3 | 23 ± 4 |  |
| CN[C@@H]1C[C@H]2O[C@@](C)([C@@H]1OC)n1c3ccccc3c3c4c(c5c6ccccc6n2c5c31)C(=O)NC4 [staurosporine] |  |  |  |  |  |  |  | significantly increased signal |
